Data from DBAASP.
Converted amounts (≈) assume the structure as drawn. “And” between values parts separate entries of the source, which are not always exact repeats. Identical values can stand only once.

Assays:
Assay in all cases: ≥ marks a high value that may be exact or a test limit, other limits are often not marked, values filed in µg/mL are converted to µM
[1] = tested on: Acinetobacter baumannii ATCC 19606
[2] = tested on: Acinetobacter baumannii
[3] = tested on: Bacillus subtilis 168
[4] = tested on: Bacillus subtilis ATCC 23857
[5] = tested on: Candida albicans CA14
[6] = tested on: Enterococcus faecalis ATCC 29212
[7] = tested on: Escherichia coli 780
[8] = tested on: Escherichia coli 850
[9] = tested on: Escherichia coli ATCC 25922
[10] = tested on: Escherichia coli K-12
[11] = tested on: Klebsiella pneumoniae ATCC 700603
[12] = tested on: Pseudomonas aeruginosa 2760
[13] = tested on: Pseudomonas aeruginosa ATCC 27853
[14] = tested on: Saccharomyces cerevisiae BY4741
[15] = tested on: Staphylococcus aureus 725
[16] = tested on: Staphylococcus aureus 936
[17] = tested on: Staphylococcus aureus ATCC 25923
[18] = tested on: Staphylococcus aureus RN4220
[19] = tested on: Aeromonas caviae IP67-16T
[20] = tested on: Aspergillus fumigatus IP1025-70
[21] = tested on: Aspergillus niger IP218-53
[22] = tested on: Candida albicans IP884-65
[23] = tested on: Cryptococcus neoformans IP960-67
[24] = tested on: Enterococcus faecalis IP103214
[25] = tested on: Escherichia coli IP76-24
[26] = tested on: Nocardia brasiliensis IP16-80
[27] = tested on: Saccharomyces cerevisiae IP118079
[28] = tested on: Staphylococcus aureus IP76-25
[29] = tested on: Trichophyton simii IP1063-74
[30] = tested on: Aeromonas hydrophila
[31] = tested on: Bacillus subtilis
[32] = tested on: Candida albicans
[33] = tested on: Edwardsiella tarda
[34] = tested on: Escherichia coli
[35] = tested on: Pseudomonas aeruginosa
[36] = tested on: Staphylococcus aureus
[37] = tested on: Bacillus megaterium Bm11
[38] = tested on: Bacillus subtilis KCTC 3068
[39] = tested on: Cryptococcus neoformans
[40] = tested on: Enterococcus faecium
[41] = tested on: Escherichia coli D21
[42] = tested on: Escherichia coli KCTC 1682
[43] = tested on: Escherichia coli ML-35
[44] = tested on: Escherichia coli O18:K1:H7 Bort
[45] = tested on: Pseudomonas aeruginosa KCTC 1637
[46] = tested on: Salmonella enterica subsp. enterica serovar Typhimurium ATCC 14028
[47] = tested on: Salmonella typhimurium KCTC 1926
[48] = tested on: Serratia marcescens ATCC 8100
[49] = tested on: Serratia marcescens
[50] = tested on: Staphylococcus aureus Cowan 1
[51] = tested on: Staphylococcus aureus KCTC 1621
[52] = tested on: Staphylococcus epidermidis ATCC 12228
[53] = tested on: Staphylococcus epidermidis ATCC 35984
[54] = tested on: Staphylococcus epidermidis KCTC 1917
[55] = tested on: Streptococcus agalactiae
[56] = tested on: Escherichia coli W160-37

An MIC [1] of 3.67 µM (≈ 8 µg/mL), an MIC [2] of 3.67 µM (≈ 8 µg/mL) and an MIC [3] of 10 µM (≈ 21.8 µg/mL) were found for `CC[C@H](C)[C@H](NC(=O)[C@H](CCCCN)NC(=O)[C@H](CCCCN)NC(=O)[C@H](C)NC(=O)[C@H](CC(C)C)NC(=O)[C@H](C)NC(=O)[C@H](C)NC(=O)[C@H](CC(C)C)NC(=O)[C@H](C)NC(=O)[C@H](CCCCN)NC(=O)[C@H](CC(C)C)NC(=O)[C@H](CC(N)=O)NC(=O)[C@@H](NC(=O)[C@H](CCCCN)NC(=O)CNC(=O)[C@H](CC(C)C)NC(=O)[C@H](CC(C)C)NC(=O)[C@H](Cc1ccc(O)cc1)NC(=O)CNC(=O)[C@H](C)N)[C@@H](C)CC)C(=O)N[C@@H](CC(C)C)C(=O)O` [AGYLLGKINLKALAALAKKIL] in this work. It also gave an MIC [4] of 3.67 µM (≈ 8 µg/mL), an MIC [5] of 4 µM (≈ 8.73 µg/mL) and an MIC [6] of 14.7 µM (≈ 32 µg/mL). The MIC [7] was 7.33 µM (≈ 16 µg/mL), the MIC [8] was 7.33 µM (≈ 16 µg/mL) and the MIC [9] was 7.33 µM (≈ 16 µg/mL). For the same molecule, the MIC [10] was 10 µM (≈ 21.8 µg/mL), the MIC [11] was 14.7 µM (≈ 32 µg/mL) and the MIC [12] was 7.33 µM (≈ 16 µg/mL). For the same molecule, the MIC [13] was 14.7 µM (≈ 32 µg/mL), the MIC [14] was 8 µM (≈ 17.5 µg/mL) and the MIC [15] was 7.33 µM (≈ 16 µg/mL). It also gave an MIC [16] of 7.33 µM (≈ 16 µg/mL), an MIC [17] of 7.33 µM (≈ 16 µg/mL) and an MIC [18] of 4 µM (≈ 8.73 µg/mL).
In the case of `CC[C@H](C)[C@H](NC(=O)CNC(=O)[C@H](CCCCN)NC(=O)[C@H](CC(C)C)NC(=O)[C@H](CCSC)NC(=O)[C@H](CC(N)=O)NC(=O)[C@H](CCCCN)NC(=O)[C@H](Cc1c[nH]c2ccccc12)NC(=O)[C@H](CC(C)C)NC(=O)[C@H](C)N)C(N)=O` [ALWKNMLKGI], the MIC [19] is reported as 7 µM (≈ 8.21 µg/mL), the MIC [20] is reported as ≥ 150 µM and the MIC [21] is reported as ≥ 150 µM. The MIC [22] was ≥ 150 µM, the MIC [23] was 25 µM (≈ 29.3 µg/mL) and the MIC [24] was 7 µM (≈ 8.21 µg/mL). The MIC [25] was 14 µM (≈ 16.4 µg/mL), the MIC [26] was ≥ 150 µM and the MIC [27] was ≥ 50 µM. The MIC [28] was ≥ 150 µM and the MIC [29] was ≥ 150 µM.
`CC[C@H](C)[C@H](NC(=O)[C@H](CC(C)C)NC(=O)CNC(=O)[C@H](Cc1cnc[nH]1)NC(=O)[C@@H](NC(=O)[C@H](Cc1cnc[nH]1)NC(=O)[C@H](CCCCN)NC(=O)CNC(=O)[C@@H](NC(=O)[C@H](CO)NC(=O)[C@H](Cc1ccccc1)NC(=O)[C@H](CC(C)C)NC(=O)CNC(=O)CNC(=O)[C@@H](NC(=O)[C@@H](NC(=O)[C@H](Cc1cnc[nH]1)NC(=O)[C@H](Cc1cnc[nH]1)NC(=O)[C@@H](NC(=O)[C@@H](N)Cc1ccccc1)[C@@H](C)CC)[C@@H](C)CC)[C@@H](C)CC)C(C)C)[C@@H](C)CC)C(=O)N[C@@H](Cc1cnc[nH]1)C(=O)NCC(=O)N[C@@H](Cc1cnc[nH]1)C(=O)O` [FIHHIIGGLFSVGKHIHGLIHGH] was tested, and the MIC [30] was ≥ 160 µM, the MIC [31] was 3 µM (≈ 7.58 µg/mL) and the MIC [32] was 20 µM (≈ 50.5 µg/mL). The MIC [33] was ≥ 160 µM, the MIC [34] was 6.7 µM (≈ 16.9 µg/mL) and the MIC [35] was 35 µM (≈ 88.4 µg/mL). The MIC [36] was 5 µM (≈ 12.6 µg/mL).
An MIC [37] of 2 µM (≈ 4.68 µg/mL), an MIC [38] of 4 µM (≈ 9.37 µg/mL) and an MIC [32] of 16 µM (≈ 37.5 µg/mL) were found for `CC(C)C[C@H](NC(=O)[C@H](CCCCN)NC(=O)[C@H](CCCCN)NC(=O)[C@H](Cc1ccccc1)NC(=O)[C@H](CC(C)C)NC(=O)[C@H](CCCCN)NC(=O)[C@H](CCCCN)NC(=O)[C@H](Cc1ccccc1)NC(=O)[C@H](CCCCN)NC(=O)[C@H](CCCCN)NC(=O)[C@H](CCCN=C(N)N)NC(=O)[C@H](Cc1ccccc1)NC(=O)[C@H](CCCN=C(N)N)NC(=O)[C@H](CCCCN)NC(=O)[C@H](Cc1ccccc1)NC(=O)[C@H](CCCN=C(N)N)NC(=O)CN)C(=O)N[C@@H](CO)C(N)=O` [GRFKRFRKKFKKLFKKLS] in this work. For the same molecule, the MIC [39] was 4 µM (≈ 9.37 µg/mL), the MIC [40] was 8 µM (≈ 18.7 µg/mL) and the MIC [9] was 2 µM (≈ 4.68 µg/mL). For the same molecule, the MIC [41] was 4 µM (≈ 9.37 µg/mL), the MIC [42] was 4 µM and 2.83 µM and the MIC [43] was 4 µM (≈ 9.37 µg/mL). It also gave an MIC [44] of 8 µM (≈ 18.7 µg/mL), an MIC [13] of 2 µM (≈ 4.68 µg/mL) and an MIC [45] of 4 µM (≈ 9.37 µg/mL). The MIC [46] was 4 µM (≈ 9.37 µg/mL), the MIC [47] was 2 µM (≈ 4.68 µg/mL) and the MIC [48] was 2 µM (≈ 4.68 µg/mL). The MIC [49] was 4 µM (≈ 9.37 µg/mL), the MIC [17] was 2 µM and 4 µM and the MIC [50] was 2 µM (≈ 4.68 µg/mL). The MIC [51] was 4 µM and 2.83 µM, the MIC [36] was 4 µM (≈ 9.37 µg/mL) and the MIC [52] was 1 µM (≈ 2.34 µg/mL). The MIC [53] was 2 µM (≈ 4.68 µg/mL), the MIC [54] was 4 µM (≈ 9.37 µg/mL) and the MIC [55] was 1 µM (≈ 2.34 µg/mL).
An MIC [56] of 22 µM (≈ 48.9 µg/mL) was found for `CC[C@H](C)[C@H](NC(=O)[C@H](CC(N)=O)NC(=O)[C@@H](NC(=O)[C@@H](NC(=O)[C@H](CCCCN)NC(=O)[C@H](CCC(N)=O)NC(=O)[C@H](CCC(N)=O)NC(=O)[C@H](C)NC(=O)[C@H](CCC(=O)O)NC(=O)[C@H](CCC(=O)O)NC(=O)[C@@H](NC(=O)[C@H](CC(=O)O)NC(=O)[C@H](CCCCN)NC(=O)[C@H](CC(C)C)NC(C)=O)C(C)C)[C@@H](C)CC)[C@@H](C)CC)C(=O)N[C@H](C(=O)N[C@@H](CCCN=C(N)N)C(=O)N[C@@H](CCCN=C(N)N)C(=O)N[C@@H](CC(C)C)C(N)=O)[C@@H](C)CC` [LKDVEEAQQKIINIIRRL] in this work.
